US20150231109A1, “COMBINATIONS (CATECHINS AND METHOTREXATE) FOR USE IN THE TREATMENT OF MELANOMAS” (UNIVERSIDAD DE MURCIA, priority 2012, published 2015)

Key:
[1] = test system: low passage patient-derived melanoma cells bearing MEK and BRAF mutations; assay: MTT assay on low passage patient-derived melanoma cell lines with BRAF and MEK1 or MEK2 mutations; assay type: cell-based, human; conditions: BRAF-inhibitor and MEK-inhibitor resistant lines; MTX/TMECG 1 μM/10 μM, PLX-4720 1 μM
Method: G, MTT assay indicating effects of MTX/TMECG (1 μM/10 μM) and PLX-4720 (1 μM) treatment on low passage patient-derived melanoma cells bearing indicated MEK and BRAF mutations. Cells were treated with vehicle only (•), PLX-4720 ( ), or with a combination of MTX+TMECG (Δ). Note the number of cells at the start of the experiment was at the limit of detection. […] Error bars show mean±SD.
MTX/TMECG was tested against two low passage melanoma cell lines (fewer than 10 passages) derived from patients with activating BRAF mutations that are resistant to both BRAF-inhibitor and MEK-inhibitor therapy, owing to the presence of activating mutations in MEK1 or MEK2 (Nikolaev et al., 2011). In the MTT assays (FIGS. 2G and 5A) a low starting number of cells (2×10^3) was used, so that any proliferation could be readily visualized.
Cell viability was evaluated using the 3-(4,5-dimethylthiazol-2-yl)-2,5-diphenyltetrazolium bromide (MTT) cell proliferation assay.

SK-MEL-28 melanoma cells = assay: HPLC/MS analyses of MTX, TMECG-QM and DHF in whole cell extracts; assay type: cell-based, human; conditions: SK-MEL-28 whole cell extracts, 24 h, MTX 1 μM and/or TMECG 10 μM; control 3.8 ± 1.1
Method: By way of example, the present inventors have shown that an active agent, such as MTX, may be used to increase TYR expression, thereby increasing the conversion of a catechin to its quinone methide form. The inventors have undertaken HPLC analyses of MTX, TMECG-QM, and DHF in whole cell extracts of SK-MEL-28 melanoma cells that were subjected to MTX (1 μM) and TMECG (10 μM) individual and combined treatments (see Table 1).

B16/F10 melanoma cells = assay: Subcutaneous B16/F10 melanoma model in C57BL/6 mice; assay type: in vivo, mouse; conditions: compared to untreated mice
Method: FIGS. 4A-N. MTX and TMECG combination therapy is effective in vivo. A, A375 melanoma cells were included in a human reconstructed skin model and were treated with MTX (1 μM) and/or TMECG (10 μM) for 14 days. B, B16/F10 melanoma cells were injected subcutaneously into C57/B16 mice. Images show tumor size 17 days post-injection in control and treated mice. […] C, Luciferase imaging of control and MTX/TMECG-treated mice 12 days post-tumor cell injection. Beetle luciferin (120 mg/kg of mouse) was injected intraperitoneally. The values (means±s.d.) are representative of three independent experiments. *P=0.007; **P=0.002. […] E, Quantification of macrometastases (0-10, 10-25 or >25) after treatment with vehicle (control), MTX (1 mg/kg/day), and/or TMECG (50 mg/kg/day). […] B16/F10 cells extracted from tumors were examined for their sensitivity to the MTX/TMECG combination (1 μM and 10 μM, respectively) using quantification of the luminescence signal (left panel). […]
Animals were bred and maintained according to the Spanish legislation on the ‘Protection of Animals used for Experimental and other Scientific Purposes’ and in accordance with the directives of the European community. […] Primary spleen tumors and hepatic metastases at 12 and 14 days, respectively, were analyzed using the IVIS Imaging System (Caliper Life Sciences). […]

[2] = test system: B16/F10 primary splenic tumors; assay: Primary spleen tumors after intrasplenic injection of luciferase-tagged B16/F10 cells; assay type: in vivo, mouse
Method: C, Luciferase imaging of control and MTX/TMECG-treated mice 12 days post-tumor cell injection. Beetle luciferin (120 mg/kg of mouse) was injected intraperitoneally. The values (means±s.d.) are representative of three independent experiments. *P=0.007; **P=0.002. […] Xenograft tumors treated with DMSO (vehicle) or MTX/TMECG (1 mg/kg/day and 50 mg/kg/day, respectively) over 14-days. […] Representative images taken from two independent experiments (n=5 for each experiment). Scale bar=200 μm and is applicable to both panels. I, B16/F10 melanoma cells, expressing a luciferase reporter, were injected subcutaneously to mice. Mice were divided in two groups (n=7) and treated with vehicle (DMSO) or MTX/TMECG (1 mg/kg/day and 10 mg/kg/day, respectively) over 21-days. Then, tumors were pooled and dissociated. B16/F10 cells extracted from tumors were examined for their sensitivity to the MTX/TMECG combination (1 μM and 10 μM, respectively) using quantification of the luminescence signal (left panel). […] Scale bar refers to all panels. […] Mice were treated with vehicle, MTX (1 mg/kg/day), and/or TMECG (50 mg/kg/day). […] Scale bar refers to all panels.
A, Luciferase imaging of vehicle (control), MTX, and/or TMECG-treated mice 12 days post-tumor cell injection. Firefly luciferin (120 mg/kg of mouse) was injected intraperitoneally. The values are representative of three independent experiments. […] The number of cells was estimated by extrapolation of the experimental luciferase signal to calibration curves. A straight line with a good linear correlation coefficient (0.998) was obtained by plotting luciferase signal vs number of B16/F10-luc2 cells. Treatment of mice (n=6) started 24 hr after tumor induction (Day 1). For all experiments: *p<0.05 with respect to control mice; #p<0.05 with respect to individual MTX or TMECG treatments.

[3] = Pharmacokinetic studies in mice plasma; assay type: in vivo; conditions: mouse, ip, male C57BL/6 mice, intra-peritoneal TMECG 50 mg/kg alone or with MTX 50 mg/kg
Method: Pharmacokinetic studies were performed in male C57BL/6 mice after intra-peritoneal injection of MTX (50 mg/kg) and/or TMECG (50 mg/kg). Animals were anesthetized with CO2, and whole blood samples (˜0.5 mL) were collected via cardiac puncture. Samples for drug quantification were collected from different animals (in triplicate) at 5, 15, and 30 min and at 1, 2, 4, and 6 hr post-dose. Whole blood samples were transferred to lithium heparin blood collection tubes, and then centrifuged at 10,000 rpm for 10 min at 4° C. After plasma deproteinization with 5% trichloroacetic acid (TCA), MTX and TMECG plasma concentrations were calculated by HPLC. Pharmacokinetic parameters were estimated using the WinNonlin software package (WinNonlin Professional version 5.1., Pharsight Corporation, CA). WinNonlin model 200 was used for the non-compartmental analysis of the concentration-time data. The area under the plasma concentration-time curve (AUClast) from time 0 to the last point (tlast) with measurable concentration (Clast) was estimated using a linear trapezoidal approximation (AUClast). The elimination half-life (t1/2) was calculated as ln2/kel, where kel (elimination rate constant) was estimated using least squares regression analysis of the concentration-time data obtained during the terminal log-linear elimination phase. The maximum plasma concentrations (Cmax) were estimated directly from the data, with tmax being defined as the time of the first occurrence of Cmax.

[4] = Toxicology in non-tumor inoculated C57BL/6 mice; assay type: in vivo, mouse
Method: FIGS. 4A-N. MTX and TMECG combination therapy is effective in vivo. A, A375 melanoma cells were included in a human reconstructed skin model and were treated with MTX (1 μM) and/or TMECG (10 μM) for 14 days. B, B16/F10 melanoma cells were injected subcutaneously into C57/B16 mice. Images show tumor size 17 days post-injection in control and treated mice. […] C, Luciferase imaging of control and MTX/TMECG-treated mice 12 days post-tumor cell injection. Beetle luciferin (120 mg/kg of mouse) was injected intraperitoneally. The values (means±s.d.) are representative of three independent experiments. *P=0.007; **P=0.002. D, Bioluminescent imaging of livers at 14 days post-intrasplenic injection of B16-F10-luc-G5 cells from untreated and MTX/TMECG-treated mice are shown. E, Quantification of macrometastases (0-10, 10-25 or >25) after treatment with vehicle (control), MTX (1 mg/kg/day), and/or TMECG (50 mg/kg/day). F, Photomicrograph of H&E-stained, 4 μm formalin-fixed, paraffin-embedded liver sections from control (DMSO) and MTX/TMECG-treated mice (1 and 50 mg/kg/day, respectively) (5× magnification). G, MTX activation of MITF and tyrosinase activates the melanoma-specific antifolate activity of TMECG, leading to depletion of cellular dTTP and apoptosis. H, Sections stained with hematoxylin and eosin show the effect of MTX/TMECG on B16/F10 primary splenic tumors. Xenograft tumors treated with DMSO (vehicle) or MTX/TMECG (1 mg/kg/day and 50 mg/kg/day, respectively) over 14-days. […] Representative images taken from two independent experiments (n=5 for each experiment). Scale bar=200 μm and is applicable to both panels. I, B16/F10 melanoma cells, expressing a luciferase reporter, were injected subcutaneously to mice. Mice were divided in two groups (n=7) and treated with vehicle (DMSO) or MTX/TMECG (1 mg/kg/day and 10 mg/kg/day, respectively) over 21-days. Then, tumors were pooled and dissociated. B16/F10 cells extracted from tumors were examined for their sensitivity to the MTX/TMECG combination (1 μM and 10 μM, respectively) using quantification of the luminescence signal (left panel). J, The histogram represents the number of B16/F10-luc2 cells remaining after 3 days of MTX/TMECG treatment with respect to vehicle treated controls (100%). […] K, The morphology of tumor dissociated B16/F10-luc2 cells before and after of MTX/TMECG treatment. Scale bar refers to all panels. L, Histograms represent the number of copies of TYR mRNA for every 1×10^3 copies of β-actin±SD of three independent experiments. […]
To explore the toxicity of TMECG and MTX, these agents (at indicated concentrations) were administrated intradermally to the back of non-tumor inoculated female C57BL/6 mice (n=10), and body weight monitored every other day. […]

[5] = target: 5-cytosine DNA methyltransferase-1 (Homo sapiens, UniProt P26358); assay: Inhibition of 5-cytosine DNA methyltransferase-1; assay type: biochemical; conditions: data not shown
glutamate dehydrogenase = glutamate dehydrogenase (Homo sapiens, UniProt P00367); assay: Inhibition of glutamate dehydrogenase; assay type: biochemical; conditions: data not shown
proteasome = assay: Inhibition of the proteasome; assay type: biochemical; conditions: data not shown
DHFR = target: T1, DHFR (Homo sapiens, UniProt P00374); conditions: Sanchez-del-Campo et al., 2009a; cited from earlier work
T1 sequence (P00374 1-187): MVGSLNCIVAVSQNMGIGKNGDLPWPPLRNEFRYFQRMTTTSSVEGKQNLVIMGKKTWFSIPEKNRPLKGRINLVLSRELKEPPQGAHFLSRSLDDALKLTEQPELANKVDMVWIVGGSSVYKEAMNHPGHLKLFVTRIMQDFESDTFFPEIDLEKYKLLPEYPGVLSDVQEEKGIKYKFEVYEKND

Chain of 5-cytosine DNA methyltransferase-1 (P26358 whole entry): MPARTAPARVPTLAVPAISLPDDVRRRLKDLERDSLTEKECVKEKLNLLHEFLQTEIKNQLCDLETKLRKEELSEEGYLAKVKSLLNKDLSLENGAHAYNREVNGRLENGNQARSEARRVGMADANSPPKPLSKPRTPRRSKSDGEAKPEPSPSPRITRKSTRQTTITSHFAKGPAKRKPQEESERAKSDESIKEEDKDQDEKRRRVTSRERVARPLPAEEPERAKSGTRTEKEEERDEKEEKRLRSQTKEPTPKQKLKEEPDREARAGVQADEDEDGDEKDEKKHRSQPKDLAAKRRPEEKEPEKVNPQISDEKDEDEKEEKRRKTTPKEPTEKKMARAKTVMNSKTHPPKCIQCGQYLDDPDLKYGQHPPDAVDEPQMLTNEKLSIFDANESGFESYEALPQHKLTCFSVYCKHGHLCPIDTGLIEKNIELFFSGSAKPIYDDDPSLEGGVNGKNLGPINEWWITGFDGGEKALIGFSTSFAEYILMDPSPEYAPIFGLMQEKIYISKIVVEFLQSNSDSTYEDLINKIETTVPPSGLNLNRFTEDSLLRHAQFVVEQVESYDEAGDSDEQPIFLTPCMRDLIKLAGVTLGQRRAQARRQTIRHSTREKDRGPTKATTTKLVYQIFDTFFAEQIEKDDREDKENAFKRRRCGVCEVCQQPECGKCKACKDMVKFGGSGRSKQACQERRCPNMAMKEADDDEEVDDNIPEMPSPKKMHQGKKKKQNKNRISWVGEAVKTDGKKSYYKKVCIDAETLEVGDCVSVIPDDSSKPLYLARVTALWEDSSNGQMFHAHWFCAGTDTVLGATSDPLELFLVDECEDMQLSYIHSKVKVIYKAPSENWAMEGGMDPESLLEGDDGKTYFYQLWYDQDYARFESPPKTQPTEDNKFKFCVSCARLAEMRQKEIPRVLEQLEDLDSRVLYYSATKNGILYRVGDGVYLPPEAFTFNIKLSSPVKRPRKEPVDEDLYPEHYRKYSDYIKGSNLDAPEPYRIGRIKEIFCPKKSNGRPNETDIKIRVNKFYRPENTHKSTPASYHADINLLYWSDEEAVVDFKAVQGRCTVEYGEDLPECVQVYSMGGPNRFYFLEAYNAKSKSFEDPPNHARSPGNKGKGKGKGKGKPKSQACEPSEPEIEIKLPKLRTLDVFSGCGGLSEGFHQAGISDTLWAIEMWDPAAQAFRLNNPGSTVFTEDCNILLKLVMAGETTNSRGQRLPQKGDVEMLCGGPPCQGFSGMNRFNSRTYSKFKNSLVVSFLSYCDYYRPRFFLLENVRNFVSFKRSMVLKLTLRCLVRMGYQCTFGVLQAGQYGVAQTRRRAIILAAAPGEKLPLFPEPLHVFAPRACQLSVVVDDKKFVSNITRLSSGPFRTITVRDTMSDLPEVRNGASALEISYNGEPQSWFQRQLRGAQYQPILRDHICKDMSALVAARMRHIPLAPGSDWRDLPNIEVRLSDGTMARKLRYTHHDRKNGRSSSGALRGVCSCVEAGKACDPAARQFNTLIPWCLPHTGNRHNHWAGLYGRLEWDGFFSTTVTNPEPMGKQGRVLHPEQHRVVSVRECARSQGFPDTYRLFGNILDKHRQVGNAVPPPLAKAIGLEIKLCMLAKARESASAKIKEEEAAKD
Chain of glutamate dehydrogenase (P00367 54-558): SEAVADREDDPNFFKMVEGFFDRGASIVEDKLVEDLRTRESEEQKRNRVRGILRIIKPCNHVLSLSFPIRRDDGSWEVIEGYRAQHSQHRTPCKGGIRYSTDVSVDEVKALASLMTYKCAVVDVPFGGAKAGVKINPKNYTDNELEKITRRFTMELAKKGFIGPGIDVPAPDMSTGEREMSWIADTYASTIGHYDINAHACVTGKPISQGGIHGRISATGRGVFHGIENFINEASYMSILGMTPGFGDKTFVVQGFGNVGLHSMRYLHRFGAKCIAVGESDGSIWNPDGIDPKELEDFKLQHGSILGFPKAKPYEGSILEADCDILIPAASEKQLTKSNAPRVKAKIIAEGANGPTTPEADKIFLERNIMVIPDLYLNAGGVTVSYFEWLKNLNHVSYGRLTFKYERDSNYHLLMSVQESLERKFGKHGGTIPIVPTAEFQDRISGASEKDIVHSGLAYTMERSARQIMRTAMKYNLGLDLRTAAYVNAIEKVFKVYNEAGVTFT

CCCS(=O)(=O)Nc1ccc(F)c(C(=O)c2c[nH]c3ncc(Cl)cc23)c1F [PLX-4720]
proliferation (MTT) [1]: failed to impact significantly on proliferation

COc1cc(C(=O)O[C@@H]2Cc3c(O)cc(O)cc3O[C@@H]2c2ccc(O)c(O)c2)cc(OC)c1OC [TMECG, 3,4,5-trimethoxy-epicatechin-3-gallate]
DHF intracellular concentration (SK-MEL-28 melanoma cells): 4.8 ± 0.9 pmol/10^6 cells | tumor growth (B16/F10 melanoma cells): significantly reduced | necrotic areas in splenic tumors ([2]; 14 days treatment, MTX 1 mg/kg/day and/or TMECG 50 mg/kg/day): 11%±3% | effect on in vivo luciferase signal ([2]; MTX or TMECG alone, 12 days post-tumor cell injection): around 2 fold | AUC ([3]; read-out: TMECG Parameters AUC): 79100 ng·h/mL | Cmax ([3]; read-out: TMECG Parameters Cmax): 39300 ng/mL | Tmax ([3]; read-out: TMECG Parameters Tmax): 5.4 min | half-life ([3]; read-out: TMECG Parameters t1/2 (converted)): 107 min | mouse body weight ([4]; TMECG-treated versus untreated groups): not significant | toxicity in vivo ([4]; preliminary observations): not toxic in vivo

COc1cc(C(=O)O[C@H](Cc2c(O)cc(O)cc2O)C(=O)c2ccc(O)c(O)c2)cc(OC)c1OC [TMECG-QM]
inhibition of 5-cytosine DNA methyltransferase-1 [5]: does not inhibit | inhibition of glutamate dehydrogenase (glutamate dehydrogenase): does not inhibit | inhibition of the proteasome (proteasome): does not inhibit | inhibition constant for DHFR (DHFR): nanomolar order
